{"source": "paper PMC10165273", "about": "“Itch receptor MRGPRX4 interacts with the receptor activity–modifying proteins” (The Journal of Biological Chemistry, 2023)", "key": {"MRGPRX4": {"molecular_target": "T1, MRGPRX4 (Homo sapiens, UniProt Q96LA9)", "T1 construct": "expressed in transfected cells; host or cells: HEK293T", "T1 sequence (Q96LA9 whole entry)": "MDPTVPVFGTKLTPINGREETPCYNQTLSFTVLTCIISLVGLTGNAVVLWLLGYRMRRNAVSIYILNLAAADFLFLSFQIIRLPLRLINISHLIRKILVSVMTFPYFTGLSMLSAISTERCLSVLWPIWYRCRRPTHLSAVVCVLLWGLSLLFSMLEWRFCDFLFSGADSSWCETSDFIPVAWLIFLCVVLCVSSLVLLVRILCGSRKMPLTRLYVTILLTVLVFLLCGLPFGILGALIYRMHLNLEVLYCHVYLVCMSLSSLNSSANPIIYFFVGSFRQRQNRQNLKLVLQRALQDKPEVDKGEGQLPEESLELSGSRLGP", "assay": "BRET2 β-arrestin2 recruitment to MRGPRX4", "format": "cell-based", "conditions": "for BRET2 ratio: Fig 5c, MRGPRX4, 100μM ligand, listed as Ng", "excerpt": "(§1) The method for homogenous transfection of β-Arrestin and BRET^2 assay of β-Arrestin recruitment has been described previously ([51]). […] BRET^2 measurements were taken on the BioTek Synergy NEO2 microplate reader.\nFor MRGPRX4 DNA titration assays, HEK293T cells were cotransfected with either β-Arrestin1 or β-Arrestin2 with increasing amounts of MRGPRX4 (0.5, 1, or 2 pg/cell).\nTo measure the time-course of β-Arrestin2 recruitment to MRGPRX4 and CALCRL, the transfection and general procedure described above was followed, with the modification that Prolume Purple was added first, followed by addition of the appropriate agonists ([51]).\n(§2) The BRET ratio for each sample was determined by calculating the ratio of the light intensity emitted by the GFP10 (515 nm) (acceptor) over the light intensity emitted by the RLuc3 (395 nm) (donor). Net BRET^2 was determined by subtracting the basal BRET^2 (β-arrestin-RLuc3 only) signal from the BRET^2 signals. All BRET values were normalized to the MRGPRX4-only condition."}, "MRGPRX4 + RAMP1": {"molecular_target": "T2, MRGPRX4 + RAMP1 (Homo sapiens, UniProt Q96LA9)", "T2 construct": "expressed in transfected cells; host or cells: HEK293T", "T2 sequence (Q96LA9 whole entry)": "as above", "assay": "BRET2 β-arrestin2 recruitment, MRGPRX4 with RAMP1", "format": "cell-based", "conditions": "RAMP1 coexpression vs MRGPRX4 alone (Fig. 5F)", "experimental": "as §1, §2"}, "mock-transfected cells": {"system": "mock-transfected cells", "assay": "BRET2 β-arrestin recruitment time course, mock-transfected cells", "format": "cell-based, human", "conditions": "Fig 5c, 100μM ligand, listed as Ng"}, "[1]": {"conditions": "MRGPRX4-GFP10 BRET2 time-course, 100 µM (Fig. 5)"}}, "note": "“And” between values parts separate entries of the source, which are not always exact repeats. Equal values may be shown once.", "data": [{"smiles": "CC(C)[C@H]1CC[C@H](C(=O)N[C@H](Cc2ccccc2)C(=O)O)CC1", "note": "[Nateglinide]", "values": [{"measurement": "BRET2 ratio", "setting": "MRGPRX4; 1200 s", "value": "0.01452 and 0.0141 and 0.01263"}, {"measurement": "BRET2 ratio", "setting": "MRGPRX4; 1260 s", "value": "0.01409 and 0.01389 and 0.01057"}, {"measurement": "BRET2 ratio", "setting": "MRGPRX4; 1320 s", "value": "0.01336 and 0.01334 and 0.0149"}, {"measurement": "BRET2 ratio", "setting": "MRGPRX4; 1380 s", "value": "0.01171 and 0.01208 and 0.01329"}, {"measurement": "normalized β-arrestin2 recruitment BRET2 signal (Figure 5f)", "setting": "MRGPRX4; MRGPRX4, 100μM Ng", "value": 1}, {"measurement": "Kfast", "setting": "MRGPRX4; [1]", "value": 0.008519}, {"measurement": "Kslow", "setting": "MRGPRX4; [1]", "value": 0.002534}, {"measurement": "Rate constant ratio", "setting": "MRGPRX4; [1]", "value": 3.361}, {"measurement": "Tau (fast)", "setting": "MRGPRX4; [1]", "value": 117.4}, {"measurement": "Tau (slow)", "setting": "MRGPRX4; [1]", "value": 394.6}, {"measurement": "two-phase decay Plateau", "setting": "MRGPRX4; [1]", "value": 0.004639}, {"measurement": "two-phase decay x0", "setting": "MRGPRX4; [1]", "value": 56.70}, {"measurement": "two-phase decay y0", "setting": "MRGPRX4; [1]", "value": 0.01291}, {"measurement": "time of peak β-arrestin2 recruitment to MRGPRX4", "setting": "MRGPRX4; time course (Fig. 5C)", "value": 3, "unit": "min"}, {"measurement": "decrease in β-arrestin2 recruitment upon nateglinide treatment", "setting": "MRGPRX4 + RAMP1", "value": "~10", "unit": "%"}, {"measurement": "BRET2 ratio", "setting": "mock-transfected cells; 60 s", "value": "0.008415 and 0.007646 and 0.00794"}, {"measurement": "BRET2 ratio", "setting": "mock-transfected cells; 120 s", "value": "0.007842 and 0.007685 and 0.007289"}, {"measurement": "BRET2 ratio", "setting": "mock-transfected cells; 180 s", "value": "0.007259 and 0.007981 and 0.007565"}, {"measurement": "BRET2 ratio", "setting": "mock-transfected cells; 240 s", "value": "0.007155 and 0.006788 and 0.008148"}, {"measurement": "BRET2 ratio", "setting": "mock-transfected cells; 300 s", "value": "0.007567 and 0.007447 and 0.007514"}, {"measurement": "BRET2 ratio", "setting": "mock-transfected cells; 360 s", "value": "0.008471 and 0.007058 and 0.007429"}, {"measurement": "BRET2 ratio", "setting": "mock-transfected cells; 420 s", "value": "0.007097 and 0.007188 and 0.007508"}, {"measurement": "BRET2 ratio", "setting": "mock-transfected cells; 480 s", "value": "0.006826 and 0.007196 and 0.007205"}, {"measurement": "BRET2 ratio", "setting": "mock-transfected cells; 540 s", "value": "0.008083 and 0.00749 and 0.00867"}, {"measurement": "BRET2 ratio", "setting": "mock-transfected cells; 600 s", "value": "0.007686 and 0.006192 and 0.007271"}, {"measurement": "BRET2 ratio", "setting": "mock-transfected cells; 660 s", "value": "0.006698 and 0.007765 and 0.007192"}, {"measurement": "BRET2 ratio", "setting": "mock-transfected cells; 720 s", "value": "0.00801 and 0.006623 and 0.005548"}, {"measurement": "BRET2 ratio", "setting": "mock-transfected cells; 780 s", "value": "0.009777 and 0.007416 and 0.006284"}, {"measurement": "BRET2 ratio", "setting": "mock-transfected cells; 840 s", "value": "0.007062 and 0.008946 and 0.00672"}, {"measurement": "BRET2 ratio", "setting": "mock-transfected cells; 900 s", "value": "0.007894 and 0.008249 and 0.007741"}, {"measurement": "BRET2 ratio", "setting": "mock-transfected cells; 960 s", "value": "0.008424 and 0.006304 and 0.008892"}, {"measurement": "BRET2 ratio", "setting": "mock-transfected cells; 1020 s", "value": "0.008684 and 0.007837 and 0.007668"}, {"measurement": "BRET2 ratio", "setting": "mock-transfected cells; 1080 s", "value": "0.008011 and 0.008281 and 0.007344"}, {"measurement": "BRET2 ratio", "setting": "mock-transfected cells; 1140 s", "value": "0.009425 and 0.00762 and 0.007536"}, {"measurement": "BRET2 ratio", "setting": "mock-transfected cells; 1200 s", "value": "0.006477 and 0.008078 and 0.009426"}, {"measurement": "BRET2 ratio", "setting": "mock-transfected cells; 1260 s", "value": "0.008155 and 0.006248 and 0.008937"}, {"measurement": "BRET2 ratio", "setting": "mock-transfected cells; 1320 s", "value": "0.008765 and 0.01027 and 0.007016"}, {"measurement": "BRET2 ratio", "setting": "mock-transfected cells; 1380 s", "value": "0.009766 and 0.009472 and 0.01001"}]}]}
